One assay deals with PERK (Homo sapiens (Human), UniProt Q9NZJ5). In words: PERK cellular assay (TR-FRET, HEK293-EGFP-eIF2α cells, tunicamycin-induced ER stress). The format is cell-based. Particulars: tunicamycin 2 hours, read-out: Cellular IC50 (μM) (EIF2a). Summed up:
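Cells pre-incubated with inhibitor 30 min at 37 °C, then ER stress induced with […] tunicamycin for 2 h. TR-FRET read on lysates; ratio normalized to DMSO control as percent inhibition over a 10-point, 3-fold dilution series; IC50 from 4-parameter logistic fit.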

For assay [1], the target named is EIF2AK3 (PERK) catalytic domain (amino acids 536-1116) (Homo sapiens (Human), UniProt Q9NZJ5). Kind of assay: PERK in vitro activity assay (isolated), TR-FRET kinase assay. Particulars: isolated PERK enzyme, 1.5 μM ATP, GFP-eIF2a substrate; read-out: Biochemical IC50. Summed up:
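Human PERK catalytic domain (aa 536-1116) with 100-200 nM GFP-eIF2a in 50 mM HEPES pH 7.5, 10 mM MgCl2, 1.0 mM EGTA, 0.01% Brij-35; enzyme-started reaction run 45 min at room temperature. Stopped with 10 mM EDTA, 2 nM Tb-anti-phospho-eIF2a added for 90 min; IC50 from TR-FRET ratio by 4-parameter logistic fit.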

Sequence of PERK (Q9NZJ5 30-1116): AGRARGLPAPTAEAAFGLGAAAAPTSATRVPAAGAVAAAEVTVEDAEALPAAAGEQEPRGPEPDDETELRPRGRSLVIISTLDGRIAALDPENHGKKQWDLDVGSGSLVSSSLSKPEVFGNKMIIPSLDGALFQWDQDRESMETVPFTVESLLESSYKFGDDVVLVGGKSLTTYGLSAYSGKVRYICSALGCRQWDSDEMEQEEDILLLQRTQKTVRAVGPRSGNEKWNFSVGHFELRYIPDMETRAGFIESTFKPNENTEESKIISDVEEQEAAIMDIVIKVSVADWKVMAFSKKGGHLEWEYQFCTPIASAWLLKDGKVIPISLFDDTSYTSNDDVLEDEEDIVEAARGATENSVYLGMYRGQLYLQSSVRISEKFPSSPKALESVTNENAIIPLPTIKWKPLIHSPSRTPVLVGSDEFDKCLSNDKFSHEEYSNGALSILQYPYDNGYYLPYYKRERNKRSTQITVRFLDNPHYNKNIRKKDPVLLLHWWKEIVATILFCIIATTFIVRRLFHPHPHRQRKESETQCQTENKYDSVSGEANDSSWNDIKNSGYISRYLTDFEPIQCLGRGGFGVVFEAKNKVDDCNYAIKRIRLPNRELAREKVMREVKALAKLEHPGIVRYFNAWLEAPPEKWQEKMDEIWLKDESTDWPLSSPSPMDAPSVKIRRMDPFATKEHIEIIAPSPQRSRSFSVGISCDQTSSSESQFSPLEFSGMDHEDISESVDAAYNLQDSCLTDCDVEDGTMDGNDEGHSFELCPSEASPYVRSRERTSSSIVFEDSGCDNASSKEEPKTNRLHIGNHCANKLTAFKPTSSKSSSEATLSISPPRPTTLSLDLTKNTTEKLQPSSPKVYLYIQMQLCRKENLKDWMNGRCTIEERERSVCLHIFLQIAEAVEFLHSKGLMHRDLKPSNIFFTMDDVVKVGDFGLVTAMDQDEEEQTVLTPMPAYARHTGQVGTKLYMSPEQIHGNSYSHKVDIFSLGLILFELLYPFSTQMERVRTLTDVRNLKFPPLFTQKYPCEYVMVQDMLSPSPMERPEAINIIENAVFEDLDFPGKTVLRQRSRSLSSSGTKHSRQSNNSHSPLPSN
Sequence of EIF2AK3 (PERK) catalytic domain (amino acids 536-1116) (Q9NZJ5 536-1116): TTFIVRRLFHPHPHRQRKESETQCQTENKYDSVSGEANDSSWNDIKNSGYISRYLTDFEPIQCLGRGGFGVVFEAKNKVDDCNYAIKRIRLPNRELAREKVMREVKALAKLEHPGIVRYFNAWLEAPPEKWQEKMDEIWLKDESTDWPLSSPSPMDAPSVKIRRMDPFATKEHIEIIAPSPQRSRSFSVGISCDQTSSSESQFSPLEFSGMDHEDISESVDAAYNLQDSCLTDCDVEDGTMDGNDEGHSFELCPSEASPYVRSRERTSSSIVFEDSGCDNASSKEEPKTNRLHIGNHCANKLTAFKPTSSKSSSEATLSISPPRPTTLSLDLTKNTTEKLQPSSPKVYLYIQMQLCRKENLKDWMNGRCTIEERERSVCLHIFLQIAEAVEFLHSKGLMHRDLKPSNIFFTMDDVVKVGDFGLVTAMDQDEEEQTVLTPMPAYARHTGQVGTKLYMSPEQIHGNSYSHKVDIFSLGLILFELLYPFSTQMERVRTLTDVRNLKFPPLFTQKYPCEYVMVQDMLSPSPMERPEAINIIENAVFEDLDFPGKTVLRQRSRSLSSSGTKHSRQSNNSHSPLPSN

On to `CCc1cc(NC(=O)C(O)c2cc(F)cc(F)c2)ccc1-c1cnc(N)c(C(=O)NC(C)C)n1` (centres unmarked) [Example 151, 3-amino-6-(4-(2-(3,5-difluorophenyl)-2-hydroxyacetamido)-2-ethylphenyl)-N-isopropylpyrazine-2-carboxamide], for which the half-inhibitory concentration (IC50) at PERK is 0.026 to 0.05 µM; in assay [1], 0.001 to 0.025 µM.

On to `CCc1cc(NC(=O)C(O)c2cc(F)cc(F)c2)ccc1-c1cnc(N)c(C(=O)NC(C)C)n1` (centres unmarked) [Example 152, 3-amino-6-(4-(2-(3,5-difluorophenyl)-2-hydroxyacetamido)-2-ethylphenyl)-N-isopropylpyrazine-2-carboxamide], for which the IC50 (at PERK; in assay [1]) was 0.101 to 0.25 µM in each case.

Take `CCNC(=O)c1nc(-c2ccc(NC(=O)C(O)c3cc(F)cc(F)c3)cc2CC)cnc1N` (centres unmarked) [Example 153, 3-amino-6-(4-(2-(3,5-difluorophenyl)-2-hydroxyactamido)-2-ethylphenyl)-N-ethylpyrazine-2-carboxamide]: the IC50 at PERK lay in the range of 0.026 to 0.05 µM; in assay [1], 0.001 to 0.025 µM.

Turning to `CCc1cc(NC(=O)C(O)c2cc(F)cc(F)c2)ccc1-c1cnc(N)c(C(=O)NC2CC2)n1` (centres unmarked) [Example 156, 3-amino-N-cyclopropyl-6-(4-(2-(3,5-difluorophenyl)-2-hydroxyacetamido)-2-ethylphenyl)pyrazine-2-carboxamide], the IC50 (on PERK; in assay [1]) was 0.001 to 0.025 µM throughout.

As for `CCc1cc(NC(=O)C(O)c2cc(F)cc(F)c2)ccc1-c1cnc(N)c(C(=O)NC2CC2)n1` (centres unmarked) [Example 157, 3-amino-N-cyclopropyl-6-(4-(2-(3,5-difluorophenyl)-2-hydroxyacetamido)-2-ethylphenyl) pyrazine-2-carboxamide], the IC50 (on PERK; in assay [1]) was 0.101 to 0.25 µM throughout.

With `CCc1cc(NC(=O)C(O)c2cc(F)cc(F)c2)ccc1-c1cnc(N)c(C(=O)NC2COC2)n1` (centres unmarked) [Example 158, 3-amino-6-(4-(3-(3,5-difluorophenyl)-2-hydroxyacetamido)-2-ethylphenyl)-N-(oxetan-3-yl)pyrazine-2-carboxamide], the IC50 (on PERK; in assay [1]) was 0.001 to 0.025 µM throughout.

For `CCc1cc(NC(=O)C(O)c2cc(F)cc(F)c2)ccc1-c1cnc(N)c(C(=O)NC2COC2)n1` (centres unmarked) [Example 159, 3-amino-6-(4-(2-(3,5-difluorophenyl)-2-hydroxyacetamido)-2-ethylphenyl)-N-(oxetan-3-yl)pyrazine-2-carboxamide], the IC50 was 0.101 to 0.25 µM on PERK and 0.026 to 0.05 µM in assay [1].

`CCc1cc(NC(=O)C(O)c2cccc(C)c2)ccc1-c1cnc(N)c(C(=O)NC(C)C)n1` (centres unmarked) [Example 160, 3-amino-6-(2-ethyl-4-(2-hydroxy-2-(m-tolyl)acetamido)phenyl)-N-isopropylpyrazine-2-carboxamide]: the half-maximal inhibitory concentration (IC50) (at PERK; in assay [1]) was 0.001 to 0.025 µM throughout.

On to `CCc1cc(NC(=O)C(O)c2cccc(C)c2)ccc1-c1cnc(N)c(C(=O)NC(C)C)n1` (centres unmarked) [Example 161, 3-amino-6-(2-ethyl-4-(2-hydroxy-2-(m-tolyl)acetamido)phenyl)-N-isopropylpyrazine-2-carboxamide], for which the values for the IC50 (at PERK; in assay [1]) were 0.251 to 0.5 µM and 0.051 to 0.1 µM, respectively.

On to `Nc1ncc(-c2ccc(NC(=O)C(O)c3cc(F)cc(F)c3)cc2Cl)nc1C(=O)NCC(F)(F)F` (centres unmarked) [Example 164, 3-amino-6-(2-chloro-4-(2-(3,5-difluorophenyl)-2-hydroxyacetamido)phenyl)-N-(2,2,2-trifluoroethyl) pyrazine-2-carboxamide], for which the results for the IC50 (at PERK; in assay [1]) were 0.251 to 0.5 µM and 1 to 2 µM, respectively.

Consider `Nc1ncc(-c2ccc(NC(=O)C(O)c3cc(F)cc(F)c3)cc2Cl)nc1C(=O)NCC(F)(F)F` (centres unmarked) [Example 165, 3-amino-6-(2-chloro-4-(2-(3,5-difluorophenyl)-2-hydroxyacetamido)phenyl)-N-(2,2,2-trifluoroethyl) pyrazine-2-carboxamide], for which the results for the IC50 (on PERK; in assay [1]) were 0.026 to 0.05 µM and 0.051 to 0.1 µM, respectively.

With `Nc1ncc(-c2ccc(NC(=O)C(O)c3cc(F)cc(F)c3)cc2Cl)nc1C(=O)NC1COC1` (centres unmarked) [Example 168, 3-amino-6-(2-chloro-4-(2-(3,5-difluorophenyl)-2-hydroxyacetamido)phenyl)-N-(oxetan-3-yl)pyrazine-2-carboxamide], the figures for the half-inhibitory concentration (IC50) (at PERK; in assay [1]) were 0.101 to 0.25 µM and 0.051 to 0.1 µM, respectively.

In the case of `Nc1ncc(-c2ccc(NC(=O)C(O)c3cc(F)cc(F)c3)cc2Cl)nc1C(=O)NC1COC1` (centres unmarked) [Example 169, 3-amino-6-(2-chloro-4-(2-(3,5-difluorophenyl)-2-hydroxyacetamido)phenyl)-N-(oxetan-3-yl)pyrazine-2-carboxamide], the IC50 (on PERK; in assay [1]) was 0.001 to 0.025 µM throughout.

In the case of `Cc1cc(NC(=O)C(O)c2cc(F)cc(F)c2)ccc1-c1ccc(N)nc1` (centres unmarked) [Example 170, N-(4-(6-aminopyridin-3-yl)-3-methylphenyl)-2-(3,5-difluorophenyl)-2-hydroxyacetamide], the half-inhibitory concentration (IC50) lay within 2 to 3 µM on PERK and 0.051 to 0.1 µM in assay [1].

As to `Cc1cc(NC(=O)C(O)c2cc(F)cc(F)c2)ccc1-c1ccc(N)nc1` (centres unmarked) [Example 171, N-(4-(6-aminopyridin-3-yl)-3-methylphenyl)-2-(3,5-difluorophenyl)-2-hydroxyacetamide], the IC50 on PERK is > 5 µM; in assay [1], 0.251 to 0.5 µM.

In the case of `CNc1ccc(-c2ccc(NC(=O)C(O)c3cc(F)cc(F)c3)cc2C)cn1` (centres unmarked) [Example 172, 2-(3,5-difluorophenyl)-2-hydroxy-N-(3-methyl-4-(6-(methylamino)pyridin-3-yl)phenyl) acetamide], the 50% inhibitory concentration (IC50) was in the range of 1 to 2 µM at PERK and 0.051 to 0.1 µM in assay [1].

In the case of `CNc1ccc(-c2ccc(NC(=O)C(O)c3cc(F)cc(F)c3)cc2C)cn1` (centres unmarked) [Example 173, 2-(3,5-difluorophenyl)-2-hydroxy-N-(3-methyl-4-(6-(methylamino)pyridin-3-yl)phenyl)acetamide], the IC50 at PERK was > 5 µM; in assay [1], 0.101 to 0.25 µM.

As for `CNc1ncc(-c2ccc(NC(=O)C(O)c3cc(F)cc(F)c3)cc2C)cc1C(=O)NC(C)C` (centres unmarked) [Example 174, 5-(4-(2-(3,5-difluorophenyl)-2-hydroxyacetamido)-2-methylphenyl)-N-isopropyl-2-(methylamino) nicotinamide], the results for the concentration for half-maximal inhibition (IC50) (at PERK; in assay [1]) were 4 to 5 µM and 0.101 to 0.25 µM, respectively.

For the compound `CNc1ncc(-c2ccc(NC(=O)C(O)c3cc(F)cc(F)c3)cc2C)cc1C(=O)NC(C)C` (centres unmarked) [Example 175, 5-(4-(2-(3,5-difluorophenyl)-2-hydroxyacetamido)-2-methylphenyl)-N-isopropyl-2-(methylamino) nicotinamide], the results for the IC50 (on PERK; in assay [1]) were > 5 µM and 1 to 2 µM, respectively.

Turning to `Cc1cc(NC(=O)C(O)c2cc(F)cc(F)c2)ccc1-c1cnc(C)c(C(=O)NC(C)C)c1` (centres unmarked) [Example 176, 5-(4-(2-(3,5-difluorophenyl)-2-hydroxyacetamido)-2-methylphenyl)-N-isopropyl-2-methylnicotinamide], the IC50 on PERK lay within 0.501 to 1 µM; in assay [1], 0.051 to 0.1 µM.

For the compound `Cc1cc(NC(=O)C(O)c2cc(F)cc(F)c2)ccc1-c1cnc(C)c(C(=O)NC(C)C)c1` (centres unmarked) [Example 177, 5-(4-(2-(3,5-difluorophenyl)-2-hydroxyacetamido)-2-methylphenyl)-N-isopropyl-2-methylnicotinamide], the IC50 lay within 0.251 to 0.5 µM on PERK and 0.026 to 0.05 µM in assay [1].

In the case of `Cc1cc(NC(=O)C(O)c2cc(F)cc(F)c2)ccc1-c1cncc(C(=O)NC(C)C)c1` (centres unmarked) [Example 178, 5-(4-(2-(3,5-difluorophenyl)-2-hydroxyacetamido)-2-methylphenyl)-N-isopropylnicotinamide], the IC50 was in the range of 0.101 to 0.25 µM on PERK and 0.026 to 0.05 µM in assay [1].

As for `Cc1cc(NC(=O)C(O)c2cc(F)cc(F)c2)ccc1-c1cncc(C(=O)NC(C)C)c1` (centres unmarked) [Example 179, 5-(4-(2-(3,5-difluorophenyl)-2-hydroxyacetamido)-2-methylphenyl)-N-isopropylnicotinamide], the IC50 is 0.501 to 1 µM at PERK and 0.101 to 0.25 µM in assay [1].

With `Cc1ccc(-c2ccc(NC(=O)C(O)c3cc(F)cc(F)c3)cc2C)cn1` (centres unmarked) [Example 180, 2-(3,5-difluorophenyl)-2-hydroxy-N-(3-methyl-4-(6-methylpyridin-3-yl)phenyl)acetamide], the IC50 on PERK is > 5 µM; in assay [1] it was 1 to 2 µM.

On to `Cc1ccc(-c2ccc(NC(=O)C(O)c3cc(F)cc(F)c3)cc2C)cn1` (centres unmarked) [Example 181, 2-(3,5-difluorophenyl)-2-hydroxy-N-(3-methyl-4-(6-methylpyridin-3-yl)phenyl)acetamide], for which the concentration for half-maximal inhibition (IC50) (at PERK; in assay [1]) was > 5 µM each time.

`Cc1cc(N(O)C(=O)C(O)c2cc(F)cc(F)c2)ccc1-c1cnc(N)c(C(=O)NC(C)C)c1` (centres unmarked) [Example 182, 2-amino-5-(4-(2-(3,5-difluorophenyl)-N,2-dihydroxyacetamido)-2-methylphenyl)-N-isopropylnicotinamide]: the IC50 lay within 2 to 3 µM on PERK and 0.251 to 0.5 µM in assay [1].

As for `Cc1cc(NC(=O)C(F)(F)c2ccccc2)ccc1-c1cnc(N)c(C(=O)NC(C)C)c1` [Example 183, 2-amino-5-(4-(2,2-difluoro-2-phenylacetamido)-2-methylphenyl)-N-isopropylnicotinamide], the IC50 fell in the range of 2 to 3 µM at PERK and 0.101 to 0.25 µM in assay [1].

Regarding `Cc1cc(NC(=O)C(=O)c2cc(F)cc(F)c2)ccc1-c1cnc(N)c(C(=O)NC(C)C)c1` [Example 184, 2-amino-5-(4-(2-(3,5-difluorophenyl)-2-oxoacetamido)-2-methylphenyl)-N-isopropyl nicotinamide], the half-maximal inhibitory concentration (IC50) on PERK was 0.101 to 0.25 µM; in assay [1] it was 0.251 to 0.5 µM.
